Patent publication US12440487B2, “Method of normalizing the neutrophil to lymphocyte ratio in cancer patients with a selective glucocorticoid receptor antagonist” (Corcept Therapeutics Incorporated, priority 2019, dated 2025)
Values joined by “and” are separate entries in the source; they are usually repeats but may differ in a detail not shown here. Equal values may be shown once. “Also recorded” adds a separate entry of the source.

Assays:
[1] = test system: neutrophil-to-lymphocyte ratio (NLR); experiment: Prednisone-challenge NLR study in healthy subjects (NCT03508635, SAD and MAD cohorts); format: in vivo, human
Method: Methods: Lymphocyte and neutrophil abundance were determined using standard differential complete blood count tests.
(§1) Healthy subjects were enrolled in the NCT03508635 study of relacorilant. […] (C) is the Figure legend.
(§2) The intensive NLR sampling was conducted at time 0 (morning, pre-dose) and then 2, 4, 8, 12, and 24 hours thereafter. The single NLR samples were collected in the in the morning, pre-dose. The SAD portion of this experiment used a 500 mg dose while the MAD used a once daily 250 mg dose.
(§3) Blood was also drawn in the morning, pre-dose.

[2] = test system: neutrophil-to-lymphocyte ratio (NLR); experiment: Relacorilant alone, NLR in healthy subjects (NCT03508635); format: in vivo, human; conditions: 250 mg for 14 continuous days, cohort of 7 healthy subjects, none with baseline NLR greater than 3
Method: as §1, §2, §3
The normalization of the NLR by relacorilant is thought to occur through antagonism of endogenous cortisol. If patients have elevated cortisol activity, relacorilant would be expected to normalize this activity. Alternatively, relacorilant alone could cause neutropenia (reduction in neutrophils) or lymphocytosis (increase in lymphocytes) via antagonism of normal endogenous cortisol. To distinguish these two possibilities, we assessed the effects of relacorilant alone in healthy subject with normal endogenous cortisol. After 14 administering 250 mg of relacorilant for 14 continuous days, no change in the NLR was observed across a cohort of 7 healthy subjects (FIG. 7).

[3] = test system: neutrophil-to-lymphocyte ratio (NLR); experiment: 7-day single-agent relacorilant lead-in, NLR in patients with advanced solid tumors (NCT02762981); format: in vivo, human; conditions: for patients who experienced a decrease in NLR / average change in NLR: 7-day relacorilant lead-in
Method: The relacorilant lead-in included daily dosing of relacorilant alone (without nab-paclitaxel) for 7 days.
Drug concentrations were determined in study NCT02762981. Blood was collected at multiple timepoints on day 7 of relacorilant dosing. Upon collection, blood was chelated with EDTA, centrifuged, and plasma was aliquoted. Bioanalytical analyses were conducted by MicroConstants (San Diego, CA, USA). In brief, human plasma samples containing relacorilant and its stable-labeled analog as an internal standard and K3EDTA as the anticoagulant were buffered with an ammonium citrate solution and extracted with 2-butanol:hexane (2.5:97.5, v/v). The samples were vortex mixed, centrifuged and the lower portion was frozen in an ultra-cold freezer. The organic portion was transferred to a clean tube and evaporated under nitrogen. The extracts were dried, reconstituted and analyzed by reversed-phase HPLC using an ACE UltraCore SuperPhenylHexyl column. The mobile phase was nebulized using heated nitrogen in a Z-spray source/interface set to electrospray positive ionization mode. The ionized compounds were detected using MS/MS.
as §3

progesterone receptor = target: T1, progesterone receptor (Homo sapiens, UniProt P06401); conditions: cited from earlier work
T1 sequence (P06401 1-933): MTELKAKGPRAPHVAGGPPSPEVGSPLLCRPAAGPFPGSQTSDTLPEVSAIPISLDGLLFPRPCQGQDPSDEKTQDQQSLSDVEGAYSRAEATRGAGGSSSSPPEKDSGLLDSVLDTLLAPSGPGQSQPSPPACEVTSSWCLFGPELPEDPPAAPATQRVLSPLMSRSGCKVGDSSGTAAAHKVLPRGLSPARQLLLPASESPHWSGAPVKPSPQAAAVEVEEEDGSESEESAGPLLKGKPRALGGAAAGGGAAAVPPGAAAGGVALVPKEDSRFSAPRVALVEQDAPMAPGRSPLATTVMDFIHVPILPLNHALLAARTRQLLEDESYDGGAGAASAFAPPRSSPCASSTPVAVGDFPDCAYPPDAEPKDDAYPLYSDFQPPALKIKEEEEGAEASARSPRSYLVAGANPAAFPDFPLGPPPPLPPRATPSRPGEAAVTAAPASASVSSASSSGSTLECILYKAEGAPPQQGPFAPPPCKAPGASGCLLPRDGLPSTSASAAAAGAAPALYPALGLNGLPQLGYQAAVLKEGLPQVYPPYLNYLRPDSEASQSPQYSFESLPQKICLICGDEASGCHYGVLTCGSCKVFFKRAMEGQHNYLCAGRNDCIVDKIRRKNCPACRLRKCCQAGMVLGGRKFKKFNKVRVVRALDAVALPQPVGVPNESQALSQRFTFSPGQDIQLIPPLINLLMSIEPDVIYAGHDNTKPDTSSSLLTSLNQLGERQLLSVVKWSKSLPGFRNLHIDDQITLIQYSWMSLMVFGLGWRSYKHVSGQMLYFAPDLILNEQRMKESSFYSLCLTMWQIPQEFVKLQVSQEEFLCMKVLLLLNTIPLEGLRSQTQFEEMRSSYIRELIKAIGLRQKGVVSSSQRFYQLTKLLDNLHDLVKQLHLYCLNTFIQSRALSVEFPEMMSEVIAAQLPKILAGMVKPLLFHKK

[4] = test system: neutrophil or lymphocyte abundance in the blood; conditions: healthy men / healthy subjects; cited from earlier work
[5] = target: glucocorticoid receptor (GR) (Homo sapiens, UniProt P04150); conditions: binds to GR, PR and AR; cited from earlier work
Chain of glucocorticoid receptor (GR) (P04150 whole entry, species assumed): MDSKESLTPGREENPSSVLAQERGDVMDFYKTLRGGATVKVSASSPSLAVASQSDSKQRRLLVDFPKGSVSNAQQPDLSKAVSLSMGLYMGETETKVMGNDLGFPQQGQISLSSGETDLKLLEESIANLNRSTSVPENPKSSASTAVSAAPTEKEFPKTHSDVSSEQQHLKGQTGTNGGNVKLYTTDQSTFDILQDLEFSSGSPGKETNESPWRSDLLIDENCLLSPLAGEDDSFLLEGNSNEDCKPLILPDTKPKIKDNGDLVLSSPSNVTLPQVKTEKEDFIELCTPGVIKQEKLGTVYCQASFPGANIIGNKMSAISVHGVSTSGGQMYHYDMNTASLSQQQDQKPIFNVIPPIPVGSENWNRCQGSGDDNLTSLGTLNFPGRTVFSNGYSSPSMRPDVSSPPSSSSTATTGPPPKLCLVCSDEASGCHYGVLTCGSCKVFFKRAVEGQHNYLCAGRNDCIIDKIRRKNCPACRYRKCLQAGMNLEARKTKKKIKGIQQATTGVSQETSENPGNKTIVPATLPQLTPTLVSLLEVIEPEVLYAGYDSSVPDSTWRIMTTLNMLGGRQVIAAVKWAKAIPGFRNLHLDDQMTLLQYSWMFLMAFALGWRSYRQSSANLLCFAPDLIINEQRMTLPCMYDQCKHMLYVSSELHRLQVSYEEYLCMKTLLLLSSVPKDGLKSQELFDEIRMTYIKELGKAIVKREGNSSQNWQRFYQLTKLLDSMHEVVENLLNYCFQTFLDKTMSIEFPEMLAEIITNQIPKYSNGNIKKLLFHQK

SMILES: C[C@]12C=CC(=O)C=C1CC[C@@H]1[C@@H]2C(=O)C[C@@]2(C)[C@H]1CC[C@]2(O)C(=O)CO [prednisone, 17α,21-dihydroxypregna-1,4-diene-3,11,20-trione, reference compound]
- NLR area under the curve ([1]; 25 mg prednisone after 14 consecutive days of placebo, different subjects): 72 NLR*hr
- NLR at 8 hours post prednisone ([1]; 9 healthy subjects, single dose 25 mg prednisone, baseline less than 2, returned to baseline after 24 hours): greater than 6
- NLR area under the curve ([1]; MAD cohort, 25 mg prednisone alone, same subjects on Day −5): 61.7 NLR*hr
- NLR area under the curve ([1]; SAD cohort, 25 mg prednisone alone): 54.6 NLR*hr
- acute increase of the neutrophil-to-lymphocyte ratio (NLR) ([1]; healthy subjects (n=9), 25 mg prednisone): 4.7 fold

SMILES: Cn1cc(S(=O)(=O)N2CCC3=Cc4c(cnn4-c4ccc(F)cc4)C[C@]3(C(=O)c3cc(C(F)(F)F)ccn3)C2)cn1 [relacorilant, (R)-(1-(4-fluorophenyl)-6-((1-methyl-1H-pyrazol-4-yl)sulfonyl)-4,4a,5,6,7,8-hexahydro-1H-pyrazolo[3,4-g]isoquinolin-4a-yl)(4-(trifluoromethyl)pyridin-2-yl)methanone]
- effect on prednisone-induced NLR increase ([1]; 14 consecutive days of 250 mg/day relacorilant, then 25 mg prednisone, healthy subjects): significantly blunted; also recorded: reversed the effects
- NLR area under the curve ([1]; MAD cohort, 25 mg prednisone after 14 consecutive days of 250 mg/day relacorilant): 9.6 NLR*hr
- NLR area under the curve ([1]; SAD cohort, single 500 mg dose relacorilant administered with 25 mg prednisone): 12.5 NLR*hr
- effect on prednisone-induced NLR increase ([1]; relacorilant co-administration with 25 mg prednisone, healthy subjects (n=9)): reversed this effect
- effect on prednisone-induced NLR increase ([1]; single 500 mg dose relacorilant with 25 mg prednisone, healthy subjects): significantly blunted; also recorded: reversed the effects
- change in the NLR with relacorilant alone [2]: no change; also recorded: does not change
- patients who experienced a decrease in NLR ([3]; patients with AUC between 2011-8000 ng*hr/ml (6/13)): 46%
- average change in NLR ([3]; patients with AUC between 3740-8000 ng*hr/ml): −6.1%
- patients who experienced a decrease in NLR ([3]; patients with AUC<2011 ng*hr/ml or Cmax<442 ng/ml): None
- patients who experienced a decrease in NLR ([3]; patients with Cmax between 442-1000 ng/ml (6/9)): 67%
- average change in NLR ([3]; patients with Cmax between 595-836 ng/ml): −4.4%
- NLR change from baseline (CfB) ([3]; ovarian cancer patient 038-4004, 7-day relacorilant lead-in): −46% and −55%
- NLR after relacorilant lead-in ([3]; ovarian cancer patient 038-4004, 7-day relacorilant lead-in, NLR before 5.5): 2.5
- antagonism of the progesterone receptor (progesterone receptor): does not antagonize

SMILES: CC#C[C@]1(O)CC[C@H]2[C@@H]3CCC4=CC(=O)CCC4=C3[C@@H](c3ccc(N(C)C)cc3)C[C@@]21C [mifepristone, 11β-(4-dimethylaminophenyl)-17β-hydroxy-17α-(1-propynyl)-estra-4,9-dien-3-one]
- effect on neutrophil or lymphocyte abundance in the blood [4]: does not alter
- selectivity for GR [5]: not selective
